{"source": "patent US12528777B2", "about": "“Quinazolinones derivatives for treatment of non-alcoholic fatty liver disease, preparation and use thereof” (Council of Scientific and Industrial Research, priority 2020, dated 2026)", "key": {"[1]": {"test_system": "ATGL", "test": "Immunoprecipitation assay of ATGL ubiquitination in myc-ATGL HepG2 cells", "assay_type": "cell-based", "conditions": "5 μM, 24 hours, MG-132, poly ubiquitin smear", "protocol": "To this end, an immunoprecipitation assay was performed wherein HepG2 cells overexpressing myc-ATGL were transfected with HA-Ubiquitin and treated with 5 μM of the compounds 9, 10, 107, 215, 219 and 238. MG-132, a proteasomal inhibitor, was added 4 hours before harvesting the cells. Immune complexes were pulled down with anti-myc antibody and immunoblot was done using anti-HA antibody. The resultant smears on the blot reflect the ubiquitination status of ATGL.\nFor checking the change in the ubiquitination status of ATGL on compound treatment, Myc-ATGL expressing HepG2 cells (ATGL overexpressing cell line) was transfected with 2 μg of a plasmid harboring the HA tagged ubiquitin gene using Lipofectamine 2000 reagent (Invitrogen) in OptiMEM media (HiMedia). Fresh DMEM complete media was added after 8-10 hours of transfection. After roughly 24 hours of transfection, 5 μM of the compounds 9, 10 and 107 was added and cells were harvested post 24 hours of treatment. 4 hours prior to cell harvesting, 10 μM of proteasomal inhibitor MG132 (Calbiochem, Merck Millipore) was added to the cells. Proteins were isolated from the cells and protein concentration was estimated as described previously. 30 μl of PureProteome Protein A/G Mix Magnetic Beads (Merck Millipore) was taken in a 1.5 ml microcentrifuge tube, placed in a Magna Rack (Merck Millipore) and allowed to adhere to the side of the tube. 200 μg of protein was used for immunoprecipitation reaction in a reaction volume of 1 ml. 2 μl of anti-Myc primary antibody (Cell Signaling Technology) was added and the tube was incubated overnight at 4° C. in a rotary shaker. The next day, the tube was placed back in the Magna Rack and the beads were allowed to attach to the tube. To remove non-specific and unattached reactants, 1×PBS and 0.1% Triton-X was used for washing. 2× loading dye and Lysis Buffer was added and heated at 95° C. for 10 minutes to allow the immune complex to dislodge from the magnetic beads. Western Blot was performed subsequently as described before with anti-HA primary antibody for immunoblotting (Cell Signaling Technology). The activity trends of the synthesized compounds are disclosed in Table-5."}, "[2]": {"target": "COP1 (Homo sapiens, UniProt Q8NHY2)", "sequence (Q8NHY2 whole entry)": "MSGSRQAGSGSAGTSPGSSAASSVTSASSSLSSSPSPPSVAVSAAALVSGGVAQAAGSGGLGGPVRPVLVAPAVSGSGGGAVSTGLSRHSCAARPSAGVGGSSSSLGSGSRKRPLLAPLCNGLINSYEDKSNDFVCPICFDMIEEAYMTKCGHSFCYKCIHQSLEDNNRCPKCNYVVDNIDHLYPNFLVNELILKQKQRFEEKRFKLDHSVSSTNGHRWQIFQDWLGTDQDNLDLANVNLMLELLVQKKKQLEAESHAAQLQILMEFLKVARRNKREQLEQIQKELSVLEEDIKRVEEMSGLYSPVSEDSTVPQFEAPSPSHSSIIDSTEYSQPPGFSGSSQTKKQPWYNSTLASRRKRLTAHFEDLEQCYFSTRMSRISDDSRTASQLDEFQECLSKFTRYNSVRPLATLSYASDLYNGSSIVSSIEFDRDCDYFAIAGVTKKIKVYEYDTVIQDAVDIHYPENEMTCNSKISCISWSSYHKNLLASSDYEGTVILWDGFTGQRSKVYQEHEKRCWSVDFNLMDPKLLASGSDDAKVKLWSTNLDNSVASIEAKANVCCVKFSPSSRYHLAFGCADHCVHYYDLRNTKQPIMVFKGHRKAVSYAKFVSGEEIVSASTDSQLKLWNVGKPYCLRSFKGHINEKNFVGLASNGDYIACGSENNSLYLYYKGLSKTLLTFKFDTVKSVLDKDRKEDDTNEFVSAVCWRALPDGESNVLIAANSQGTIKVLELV", "test": "In vitro ubiquitination of purified ATGL by COP1 with UbcH6", "assay_type": "biochemical", "design": "host or cells: HEK293A", "conditions": "5 μM compound, COP1 overexpressing HEK293A lysate", "from_the_text": "Purification of ATGL protein and obtaining COP1 overexpressing cell lysate: Myc-ATGL plasmid and Myc-DDK-COP1 plasmid ([…] each) were transfected separately in cultured HEK293A cells with the help of Lipofectamine2000 (Invitrogen). Cells were harvested in Lysis Buffer and protein solution was extracted as described previously. The Lysis Buffer used to harvest COP1 overexpressing cells had 0.1% SDS supplemented in it. The concentration of protein was estimated using Bradford assay. For source of E3 ligase, the total cell lysate from COP1 overexpressing HEK293A cells were used.\nFor purification of Myc-ATGL: 1 ml of Ni^2+-NTA resin (Roche) was taken in a 15 ml centrifuge tube and centrifuged at 2000 RPM for 5 minutes. The upper ethanol layer was discarded and the pellet was washed in 1×PBS twice to remove any remaining traces of ethanol. The pellet was finally washed once with Lysis Buffer for equilibration. […] The tube was incubated overnight at 4° C. in a rotary shaker.\nThe next day, the solution was centrifuged at 2000 RPM for 10 minutes and the supernatant collected. Lysis Buffer (containing protease inhibitor cocktail twice the previous concentration) was used for washing the beads twice to remove non-specific and unattached reactants in a stringent condition. The beads were finally washed once with 1×PBS containing the same amount of protease inhibitor for equilibration. 300 μl of 500 mM Imidazole (Sigma Aldrich) solution in 1×PBS was added to the resin for elution of ATGL and centrifuged at 2000 RPM for 30 minutes and the eluted protein was collected. To the separated resin, 300 μl of 1M Imidazole solution was added and centrifuged at 2000 RPM for 30 minutes and the second elute was collected. […] of eluted protein from each elution was boiled with 5 μl of Laemmli's buffer at 95° C. for 10 minutes and run in 10% SDS-PAGE gel. The supernatant collected before elution of ATGL and the proteins still attached to the Ni^2+-NTA resin were also run in the SDS-PAGE. The resolved proteins were subsequently transferred on PVDF membranes and probed with anti-myc primary antibody to check the presence of purified ATGL in the elute. Also to check the yield of the purified protein, 40 μl of the elute was run in 10% SDS page and stained with Coomassie Brilliant Blue solution followed by destaining with methanol, glacial acetic acid and water in a 50:40:10 ratio.\nFor identifying the E2 ubiquitin-conjugating enzyme responsible for ATGL ubiquitination by COP1, an in vitro ubiquitinylation kit (Enzo Life Sciences) was used. The assay was reconstituted as per manufacturer's protocol with the panel of E2 conjugating enzymes provided and other required components at the mentioned concentrations. The reaction was carried out for 6 hours following which it was quenched as per directions with the provided 2× non-reducing gel buffer and then analysed by western blotting.\nHaving identified the E2 ubiquitin conjugating enzyme as UbcH6, ubiquitination assay was set up in vitro as described previously with 5 μM of the compound 9, 107, 171, 179 and 73 followed by quenching and analysis by western blotting.\nUbiquitination of a target protein is carried out in a three step process involving three different enzymes: E1 ubiquitin activating enzyme, E2 ubiquitin conjugating enzyme and E3 ubiquitin ligase. In humans, there is only one E1 ubiquitin activating enzyme and multiple E2 and E3 enzymes. […]"}, "[3]": {"test_system": "COP1", "test": "qPCR of COP1 mRNA in HepG2 cells", "assay_type": "cell-based", "conditions": "5 μM and 10 μM, 24 hours", "protocol": "Ubiquitination of ATGL by COP1 is a post translational event, therefore, it is expected that the mRNA level of ATGL will not change compared to control upon treatment with the compound of the present disclosure which inhibit COP1. To establish this, HepG2 cells were treated with 5 μM and 10 μM of the compounds 9, 107, 171, 179 and 73 for 24 hours. RNA was isolated using TRIzol reagent followed by chloroform treatment and precipitation with isopropanol. cDNA was obtained from the isolated RNA and qPCR was carried out using SyBr green reagent. COP1 and ATGL gene expression levels were checked. 18s was used as control. FIG. 8 illustrates that compounds exert no effect on the mRNA levels of ATGL."}}, "note": "Entries after “also recorded” stand apart in the source; their conditions may differ.", "data": [{"smiles": "COCCn1c(-c2cccnc2)nc2ccc(NC(=O)Nc3cccc(C(C)=O)c3)cc2c1=O", "note": "[Compound 215, 1-(3-acetylphenyl)-3-(3-(2-methoxyethyl)-4-oxo-2-(pyridin-3-yl)-3,4-dihydroquinazolin-6-yl)urea]", "values": [{"measurement": "ATGL ubiquitination in HepG2 cells", "setting": "[1]", "result": "no such effects; also recorded: no subtle reduction in the ubiquitination smear"}]}, {"smiles": "COCC(C)n1cnc2ccc(NC(=O)Nc3cccc(C(C)=O)c3)cc2c1=O", "note": "(centres unmarked) [Compound 179, 1-(3-acetylphenyl)-3-(3-(1-methoxypropan-2-yl)-4-oxo-3,4-dihydroquinazolin-6-yl)urea]", "values": [{"measurement": "ATGL ubiquitination by COP1 in vitro", "setting": "[2]", "result": "effective in reducing the ubiquitination of ATGL by COP1; also recorded: significant efficacy in curbing ATGL ubiquitination by COP1"}, {"measurement": "COP1 mRNA level", "setting": "[3]", "result": "no significant changes"}]}, {"smiles": "COCCn1c(C)nc2ccc(NC(=O)Nc3cccc(C(C)=O)c3)cc2c1=O", "note": "[Compound 107, 1-(3-acetylphenyl)-3-(3-(2-methoxyethyl)-2-methyl-4-oxo-3,4-dihydroquinazolin-6-yl)urea]", "values": [{"measurement": "ATGL ubiquitination by COP1 in vitro", "setting": "[2]", "result": "effective in reducing the ubiquitination of ATGL by COP1; also recorded: significant efficacy in curbing ATGL ubiquitination by COP1"}, {"measurement": "ATGL ubiquitination in HepG2 cells", "setting": "[1]", "result": "effective in reducing the ATGL ubiquitination by COP1; also recorded: capability of subtly reducing ubiquitination of ATGL"}, {"measurement": "COP1 mRNA level", "setting": "[3]", "result": "no significant changes"}]}, {"smiles": "COCCn1cnc2ccc(NC(=O)Nc3cccc(C(C)=O)c3)cc2c1=O", "note": "[Compound 9, 1-(3-acetylphenyl)-3-(3-(2-methoxyethyl)-4-oxo-3,4-dihydroquinazolin-6-yl)urea]", "values": [{"measurement": "ATGL ubiquitination by COP1 in vitro", "setting": "[2]", "result": "effective in reducing the ubiquitination of ATGL by COP1; also recorded: significant efficacy in curbing ATGL ubiquitination by COP1"}, {"measurement": "ATGL ubiquitination in HepG2 cells", "setting": "[1]", "result": "effective in reducing the ATGL ubiquitination by COP1; also recorded: subtle reduction in the ubiquitination smear"}, {"measurement": "COP1 mRNA level", "setting": "[3]", "result": "no significant changes"}]}, {"smiles": "COCCn1c(-c2ccncc2)nc2ccc(NC(=O)Nc3cccc(C(C)=O)c3)cc2c1=O", "note": "[Compound 219, 1-(3-acetylphenyl)-3-(3-(2-methoxyethyl)-4-oxo-2-(pyridin-4-yl)-3,4-dihydroquinazolin-6-yl)urea]", "values": [{"measurement": "ATGL ubiquitination in HepG2 cells", "setting": "[1]", "result": "no such effects; also recorded: no subtle reduction in the ubiquitination smear"}]}, {"smiles": "COCCn1c(CN2CCCCC2)nc2ccc(NC(=O)Nc3cccc(C(C)=O)c3)cc2c1=O", "note": "[Compound 238, 1-(3-acetylphenyl)-3-(3-(2-methoxyethyl)-4-oxo-2-(piperidin-1-ylmethyl)-3,4-dihydroquinazolin-6-yl)urea]", "values": [{"measurement": "ATGL ubiquitination in HepG2 cells", "setting": "[1]", "result": "decrease ATGL ubiquitination by COP1; also recorded: decreased"}]}]}
